# Data taken from US8246944B2, “Immunotherapeutic agent for the combined treatment of tuberculosis in association with other drugs” (Archivel Farma, S.L., priority 2003, dated 2012).
# Tests used:
# [1] = test system: virulent strain of Mycobacterium tuberculosis; experiment: […]; bacillary concentration in left lung and spleen; type: in vivo, C57BL/6 mice; conditions: Control: isoniazid alone 25 mg/kg per day, 5 days per week, weeks 9-17
# [2] = test system: virulent strain of Mycobacterium tuberculosis; experiment: as above; type: in vivo, BALB/c mice; conditions: Control: isoniazid only 25 mg/kg per day, 5 days per week, 6 weeks (weeks 9-15); killed week 15
smiles,measurement,setting,value
NNC(=O)c1ccncc1 [isoniazid],"Bacillary concentration, lungs, Week 15",[1]; sacrificed week 15,2.34 ± 0.24 log10 UFC/mL
same,"Bacillary concentration, spleen, Week 15",[1]; sacrificed week 15,1.47 ± 0.44 log10 UFC/mL
same,"Bacillary concentration, lungs, Week 28",[1]; sacrificed week 28,3.86 ± 0.41 log10 UFC/mL
same,"Bacillary concentration, spleen, Week 28",[1]; sacrificed week 28,3.84 ± 0.48 log10 UFC/mL
same,"Bacillary concentration, Lung",[2],7.5 ± 2.89 UFC/mL
same,"Bacillary concentration, Spleen",[2],0.75 ± 0.33 UFC/mL
